# Test results as given in US5942405A, “Therapeutic and screening methods using C3a receptor and C3a” (priority 1997, dated 1999).
# Entries after “also recorded” stand apart in the source; their conditions may differ.
# Experiments:
# [1] = system: C5a-R; experiment: Calcium mobilization by Fura 2 loaded RBL-2H3 cells stably expressing C5a-R; format: cell-based, human; conditions: RBL-2H3 cells expressing C5a-R, Fig. 4: rC5a 10 nM, C3a analogue peptide 1 uM
# Method: (§1) (A) Electrophysiological response of Xenopus oocytes injected with cRNA for C3a Receptor (10 ng), total U937 RNA (25 ng), or a mixture of C3a Receptor (10 ng) and U937 RNA (25 ng) to 10 nM rC5a, 10 nM C3a analogue peptide, 10 nM platelet activating factor (PAF), 10 nM fMetLeuPhe. Inset, represents typical response of oocytes co-injected with C3a Receptor cRNA+U937 RNA to 10 nM C3a. (B) Electrophysiological response of oocytes injected with C5a-R cRNA (10 ng), U937 RNA (25 ng) or a mixture of C5a-R and U937 RNA, to 10 nM rC5a or 10 nM C3a analogue peptide. […] Calcium mobilization by Fura 2 loaded cells expressing C5a receptor (FIGS. 4A & 4C) or C3a Receptor (FIGS. 4B & 4D) in response to rC5a (10 nM, FIG. 4A or 100 nM, FIG. 4B) or C3a analogue peptide (1 uM, FIGS. 4C & 4D).
# To prepare C3a Receptor for expression in mammalian cells, a 1.6 kb cDNA fragment was obtained by PCR amplification that encompassed the entire C3a Receptor open reading frame. This fragment was subcloned into KpnI/Hind III sites of the mammalian expression vector, pCDN (Aiyar, N., et al (1994) Mol. Cell. Bio. 131, 75-86). Oligonucleotide primers used for PCR amplification were 5'-GA AGT GGT ACC ATG GCG TC-3' (SEQ ID NO:4) and 5'-GC TCCAAGCTTTCACACAGTTG-3' (SEQ ID NO:5) (the translation start and stop codons are underlined). RBL-2H3 cells were electroporated with either C3a Receptor or C5a-R in the pCDN mamalian expression vector (Aiyar, N., et al (1994) Mol. Cell. Bio. 131, 75-86), exactly as described (DeMartino, J. A., et al (1994) J. Biol Chem. 269, 14446-14450). Individual G418 resistant (400 μg/ml) colonies were isolated and expanded. Clonal cell lines expressing either C3a Receptor or C5a-R were chosen for further functional and binding studies.
# RBL-2H3 cells (Siraganian, R. P., et al (1982) Fed. Proc. 41, 30-34), a rat basophil cell line, when transfected with an expression plasmid encoding the C5a-R express receptors that are functionally active (DeMartino, J. A., et al (1994) J. Biol. Chem. 269, 14446-14450). RBL-2H3 cells were stably transfected with mammalian expression plasmids encoding the C5a-R or C3a Receptor and Fura 2 loaded cells were tested for a C5a or C3a induced mobilization of intracellular Ca^2+.
# Fura 2 loaded clonal cell lines expressing C5a-R or C3a Receptor were assayed for functional response, Ca^2+ mobilization, as described (Saussy, D. L. Jr., et al (1989) J. Biol. Chem. 264, 19845-19855).
# [2] = system: guinea pig ileal tissue; conditions: C3a and C4a; cited from earlier work
# [3] = system: C5a-R; experiment: Electrophysiological response (Ca2+ mediated chloride currents, two electrode voltage clamp) of Xenopus oocytes injected with C5a-R cRNA; format: cell-based, human; conditions: oocytes co-injected with C5a-R cRNA (10 ng) and U937 RNA (25 ng), ligands 10 nM
# Method: as §1
# Commercially prepared (Clontech, Palo Alto, Calif.) multiple tissue blots containing approximately 2 μg poly-A mRNA per lane were sequentially hybridized with random primer ^32 P-labeled cDNAs spanning the coding regions of C5a-R and C3a Receptor. C5a-R was cloned via PCR from differentiated U937 RNA. Final washing step was carried out twice in 0.5× SSC, 1% SDS at 65° C. for 20 min.
# Capped cRNA transcripts were generated from linearized C3a Receptor and C5a-R plasmid DNA as previously described (Kumar, C. S., et al (1989) J. Biol. Chem. 264, 17939-17946) and suspended in sterile water at a concentration of 0.2 μg/μl. […] Results represent average response determined in three separate experiments.
# The chemotactic receptors for C5a and the fMLP-R have previously been functionally expressed in Xenopus laevis oocytes (Kroll, B., et al (1991) FEBS Lett. 291, 208-210; Murphy, P. M. & McDermott, D. (1991) J Biol. Chem. 266, 12560-12567; Murphy, P. M., Gallin, E. K., and Tiffany, H. L. (1990) J Immunol. 145, 2227-2234; Schultz, P., et al (1992) Cellular Signalling 4, 153-161) and, unlike all other GPCRs tested in this system, injection of cRNA for the cloned chemotactic receptors alone is insufficient to stimulate signal transduction in response to ligand binding (Kroll, B., et al (1991) FEBS Lett. 291, 208-210; Murphy, P. M. & McDermott, D. (1991) J Biol. Chem. 266, 12560-12567). Functional expression of both of these chemotactic receptors, as monitored by induction of Ca^2+ mediated chloride currents, requires the co-injection of a complimentary human factor which can be supplied by total RNA from myeloid or liver cells (Kroll, B., et al (1991) FEBS Lett. 291, 208-210; Murphy, P. M. & McDermott, D. (1991) J Biol. Chem. 266, 12560-12567). […]
Molecule,mobilization of intracellular Ca2+ (response in words) [1],mobilization of intracellular Ca2+ (response in words) ([1]; listed as native human C3a),cross desensitization of guinea pig ileal tissue [2],electrophysiological response of oocytes expressing C5a-R [3],electrophysiological response of oocytes expressing C5a-R ([3]; listed as native ligand),electrophysiological response of oocytes expressing C5a-R ([3]; listed as C5a)
"C3a: C3a was purchased from Advanced Research Technologies, San Diego; anaphylatoxin; radioiodinated for binding",not C5a receptor bind and respond,not C5a-R expressing RBL-2H3 cells also responded,cross desensitize,smaller response; also recorded: respond,elicited similar responses,
"WWGKKYRASKLGLAR [C3a analogue synthetic peptide, reference compound]",no response,,,,,
"rC5a: Human rC5a was expressed in E. coli and purified to homogeneity (protein, UniProt P01031 678-751, looked up, C5a anaphylatoxin recombinant, E. coli, Human rC5a was expressed in E. coli and purified to homogeneity) C5a anaphylatoxin: TLQKKIEEIAAKYKHSVVKKCCYDGACVNNDETCEQRAARISLGPRCIKAFTECCVVASQLRANISHKDMQLGR",responded,,,induced rapid activation of chloride currents,,respond
